Experimental data: patent publication US20230053540A1, “TREATMENT OF LIVER INJURY” (Massachusetts Institute of Technology, priority 2019, published 2023)

Tested on: hepatocytes
Test: Seq-Well scRNA-Seq of hepatocytes after APAP overdose (signature scores, DEG vs untreated)
Format: in vivo, mouse
Details: APAP vs UT; A24logFC

CC(=O)Nc1ccc(O)cc1 [APAP, acetaminophen]
Ddx3y logFC: 0.3395 | Deb1 logFC: −0.267 | Dera logFC: −0.2674 | Diap1 logFC: 0.3259 | Dnaja2 logFC: 0.3723 | Dnajc5 logFC: 0.3265 | Dsp logFC: 0.2655 | Eea1 logFC: 0.2612 | Eif4a1 logFC: 0.2519 | Eif4ebp1 logFC: 0.2617 | Eifia logFC: 0.3147 | Eifib logFC: 0.2503 | Eific logFC: 0.302 | Elovl5 logFC: 0.3352 | Fam195a logFC: −0.2649 | Fasn logFC: 0.2914 | Fbxo21 logFC: −0.2631 | Ftsj3 logFC: 0.2552 | Gadd45a logFC: 0.2829 | Gars logFC: 0.2576 | Gcat logFC: −0.2587 | Gcgr logFC: −0.2576 | Gda logFC: 0.6275 | Gldc logFC: 0.2802 | Glul logFC: 0.3795 | Gm5424 logFC: 0.2698 | Gm20594 logFC: −0.36 | Gnai2 logFC: 1 | Gnas logFC: 0.2589 | Gsr logFC: 0.4128 | Gtf2a2 logFC: 0.2792 | H2-D1 logFC: 0.2865 | Hectd1 logFC: 0.308 | Herc1 logFC: 0.2562 | Herc4 logFC: 0.2675 | Hipk1 logFC: 0.2916 | Hnrnpu logFC: 0.3394 | Hpn logFC: −0.2686 | Hsbp1 logFC: −0.2867 | Iah1 logFC: −0.293 | Impad1 logFC: 0.3227 | Ivns1abp logFC: 0.3566 | Kdm5a logFC: 0.3514 | Ldlr logFC: 0.282 | Lipc logFC: −0.2548 | Magi3 logFC: 0.27 | Map3k2 logFC: 0.2518 | Mapkapk2 logFC: 0.3138 | Megf9 logFC: 0.2769 | Mgea5 logFC: 0.3263 | Mrpl11 logFC: −0.2685 | Mrpl15 logFC: −0.2912 | Mrpl20 logFC: −0.3093 | Mrpl28 logFC: −0.2699 | Mrpl34 logFC: −0.2838 | Mrpl41 logFC: −0.2674 | Mrpl42 logFC: −0.2845 | Mrps12 logFC: −0.2504 | Mvd logFC: −0.2704 | Myeov2 logFC: −0.3052 | Myo1b logFC: 0.2624 | Naa50 logFC: 0.2657 | Ndufa5 logFC: −0.252 | Nek7 logFC: 0.2911 | Net1 logFC: 0.3479 | Nploc4 logFC: 0.2918 | Nqo2 logFC: −0.2678 | Nucks1 logFC: 0.3558 | Nudt4 logFC: 0.2542 | Pa2g4 logFC: 0.2893 | Papss2 logFC: −0.2545 | Pcm1 logFC: 0.2654 | Pde3b logFC: −0.259 | Pdzd8 logFC: 0.2863 | Pet100 logFC: −0.28 | Pgls logFC: −0.2747 | Pi4k2a logFC: 0.3536 | Pkp4 logFC: 0.323 | Plbd2 logFC: 0.2649 | Plcxd2 logFC: −0.2752 | Pmpcb logFC: −0.2636 | Ppip5k2 logFC: 0.3209 | Ppm1g logFC: 0.2522 | Proc logFC: −0.2707 | Prpf19 logFC: 0.2588 | Psap logFC: 0.361 | Psma1 logFC: −0.2567 | Psma6 logFC: −0.3035 | Ptpmt1 logFC: −0.256 | Ptpn11 logFC: 0.2778 | Pvrl2 logFC: −0.2613 | Rab6a logFC: 0.3234 | Rabac1 logFC: −0.266 | Rangap1 logFC: 0.2962 | Rap1b logFC: 0.3408 | Rassf3 logFC: 0.2912 | Rbm39 logFC: 0.2657 | Riok3 logFC: 0.2916 | Rmnd5a logFC: 0.3189 | Rnf169 logFC: 0.334 | Rock1 logFC: 0.2608
